{
  "source": "patent US20140045689A1",
  "about": "“3,4-disubstituted pyrrole 2,5-diones and their use as fungicides” (priority 2011, published 2014)",
  "key": {"[1]": {"test_system": "Pyrenophora teres", "assay": "Activity against net blotch Pyrenophora teres in the microtiter test", "format": "cell-based", "conditions": "relative growth vs active substance-free control (=100%), absorption 405 nm, day 7 after inoculation"}, "[2]": {"test_system": "Phakopsora pachyrhizi", "assay": "Protective control of soy bean rust on soy beans caused by Phakopsora pachyrhizi (greenhouse)", "format": "in vivo", "conditions": "% diseased leaf area, soy bean seedlings sprayed 1 day before inoculation, untreated control 90", "method": "(§1) The active substances were formulated separately or together as a stock solution comprising 25 mg of active substance which was made up to 10 ml using a mixture of acetone and/or dimethyl sulfoxide (DMSO) and the emulsifier Wettol EM 31 (wetting agent having emulsifying and dispersing action based on ethoxylated alkylphenols) in a volume ratio of solvent/emulsifier of 99 to 1. This solution was then made up to 100 ml using water. This stock solution was diluted with the solvent/emulsifier/water mixture described to the active substance concentration given below.\nLeaves of pot-grown soy bean seedlings were sprayed to run-off with an aqueous suspension, containing the concentration of active ingredient or their mixture as described below. The plants were allowed to air-dry. The trial plants were cultivated for 1 day in a greenhouse chamber at 23-27° C. and a relative humidity between 60 and 80%. Then the plants were inoculated with spores of Phakopsora pachyrhizi. To ensure the success the artificial inoculation, the plants were transferred to a humid chamber with a relative humidity of about 95% and 20 to 24° C. for 24 h. The trial plants were cultivated for fourteen days in a greenhouse chamber at 23-27° C. and a relative humidity between 60 and 80%. The extent of fungal attack on the leaves was visually assessed as % diseased leaf area."}, "[3]": {"test_system": "Septoria tritici", "assay": "Preventative control of leaf blotch on wheat caused by Septoria tritici (Septtr P1, greenhouse)", "format": "in vivo", "conditions": "% diseased leaf area, wheat seedlings sprayed 1 day before inoculation, untreated control 80", "method": "as §1\nLeaves of pot-grown wheat seedling were sprayed to run-off with an aqueous suspension of the active compound or their mixture, prepared as described. The plants were allowed to air-dry. At the following day the plants were inoculated with an aqueous spore suspension of Septoria tritici. Then the trial plants were immediately transferred to a humid chamber at 18-22° C. and a relative humidity close to 100%. After 4 days the plants were transferred to a chamber with 18-22° C. and a relative humidity close to 70%. After 4 weeks the extent of fungal attack on the leaves was visually assessed as % diseased leaf area."}, "[4]": {"test_system": "Plasmopara viticola", "format": "in vivo", "conditions": "% diseased leaf area on lower leaf surface, grape cuttings sprayed 1 day before inoculation, untreated control 100"}, "[5]": {"test_system": "Pyricularia oryzae", "format": "cell-based", "conditions": "relative growth vs active substance-free control (=100%), absorption 405 nm, day 7 after inoculation"}},
  "data": [
    {"molecule": "CN(C)C1=C(C#N)C(=O)N(C)C1=O", "values": [
      {"measurement": "melting point", "result": 120, "unit": "°C"}
    ]},
    {"molecule": "CN1C(=O)C(Oc2ccccc2)=C(Oc2ccccc2)C1=O", "values": [
      {"measurement": "Growth at 32 ppm (%)", "setting": "[1]", "result": 1, "unit": "%"}
    ]},
    {"molecule": "CCN1C(=O)C(Cl)=C(Sc2ccccc2S)C1=O", "values": [
      {"measurement": "Disease (%) at 1000 pm Phakpa P1", "setting": "[2]", "result": 3, "unit": "%"}
    ]},
    {"molecule": "CCN1C(=O)C(Cl)=C(Sc2ccccc2O)C1=O", "values": [
      {"measurement": "Disease (%) at 1000 pm Septtr P1", "setting": "[3]", "result": 1, "unit": "%"}
    ]},
    {"molecule": "COC1=C(OC)C(=O)N(C)C1=O", "values": [
      {"measurement": "Disease (%) at 1000 pm Plasvi P1", "setting": "[4]", "result": 20, "unit": "%"}
    ]},
    {"molecule": "CN1C(=O)C(N)=C(Cl)C1=O", "values": [
      {"measurement": "Disease (%) at 1000 pm Plasvi P1", "setting": "[4]", "result": 7, "unit": "%"}
    ]},
    {"molecule": "CSC1=C(SC)C(=O)N(C)C1=O", "note": "[drawing 56]", "values": [
      {"measurement": "Growth at 32 ppm (%)", "setting": "[1]", "result": 0, "unit": "%"}
    ]},
    {"molecule": "CCN1C(=O)C(Cl)=C(Nc2ccccc2O)C1=O", "note": "[drawing 57]", "values": [
      {"measurement": "Growth at 32 ppm (%)", "setting": "[1]", "result": 15, "unit": "%"}
    ]},
    {"molecule": "CCN1C(=O)C=C(Nc2ccccc2O)C1=O", "note": "[drawing 58]", "values": [
      {"measurement": "Growth at 32 ppm (%)", "setting": "[1]", "result": 12, "unit": "%"}
    ]},
    {"molecule": "CSC1=C(SC)C(=O)N(C)C1=O", "note": "[drawing 59]", "values": [
      {"measurement": "Growth at 32 ppm (%)", "setting": "[5]", "result": 0, "unit": "%"}
    ]},
    {"molecule": "CCN1C(=O)C(Cl)=C(Nc2ccccc2O)C1=O", "note": "[drawing 60]", "values": [
      {"measurement": "Growth at 32 ppm (%)", "setting": "[5]", "result": 10, "unit": "%"}
    ]},
    {"molecule": "CCN1C(=O)C=C(Nc2ccccc2O)C1=O", "note": "[drawing 61]", "values": [
      {"measurement": "Growth at 32 ppm (%)", "setting": "[5]", "result": 11, "unit": "%"}
    ]}
  ]
}
